# The supplement of paper PMC5579334
# ± gives the standard deviation of the averaged measurements.
# Legend:
# HS-PSS [1] = assay: drug sensitivity score (DSS, CellTiter-Glo viability, 72 h) (DSS (dimensionless)); higher = more sensitive; extreme values may be limits of the assay
# Procedure, shortened: (§1)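 Viability was scored by CellTiter-Glo ATP luminescence, scaled from vehicle to positive-control wells, with duplicates averaged where present. The cells, MPNST lines and primary human Schwann cells at 750–1000 per well, sat 72 h at 37 °C, 5% CO2, in 384-well plates preprinted with each compound at five concentrations in 10-fold steps. Four-parameter logistic fits were run on the data. These fits give drug sensitivity score and relative IC50 censored at the top concentration, and percent inhibition is reported at the top concentration.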
# HS-Sch-2 [2] = assay: as above
# Procedure, shortened: as §1
# [3] = test system: HSC1 (primary human Schwann cells); assay: as above
# Procedure, shortened: as §1
# [4] = test system: HSC2 (primary human Schwann cells); assay: as above
# Procedure, shortened: as §1
# S1507-2 [5] = assay: as above
# Procedure, shortened: as §1
# S462 [6] = assay: as above
# Procedure, shortened: as §1
# ST8814 [7] = assay: as above
# Procedure, shortened: as §1
# STS26T [8] = assay: as above
# Procedure, shortened: as §1
# YST-1 [9] = assay: as above
# Procedure, shortened: as §1
# HS-PSS [10] = assay: drug sensitivity score (DSS, CellTox-Green cytotoxicity, 72 h) (DSS (dimensionless)); higher = more cytotoxic; extreme values may be limits of the assay
# Procedure, shortened: (§2)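 MPNST cell lines and primary human Schwann cells were incubated 72 h at 37 °C in 384-well plates holding five 10-fold compound dilutions. CellTox-Green was added before seeding at a final 1:1000 dilution and reported fluorescence from DNA released by disrupted cells. Signals were scaled to vehicle and positive-control wells, and cultures failing plate quality control were dropped. Drug sensitivity score and relative IC50 come from four-parameter logistic fits, with IC50 censored at the top concentration.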
# [11] = test system: HSC1 (primary human Schwann cells); assay: as above
# Procedure, shortened: as §2
# [12] = test system: HSC2 (primary human Schwann cells); assay: as above
# Procedure, shortened: as §2
# S1507-2 [13] = assay: as above
# Procedure, shortened: as §2
# ST8814 [14] = assay: as above
# Procedure, shortened: as §2
# STS26T [15] = assay: as above
# Procedure, shortened: as §2
# HS-PSS [16] = assay: % inhibition of CellTiter-Glo viability at highest tested concentration (72 h), relative to DMSO and benzethonium chloride controls; higher = more inhibition
# Procedure, shortened: as §1
# HS-Sch-2 [17] = assay: as above
# Procedure, shortened: as §1
# [18] = test system: HSC1 (primary human Schwann cells); assay: as above
# Procedure, shortened: as §1
# [19] = test system: HSC2 (primary human Schwann cells); assay: as above
# Procedure, shortened: as §1
# S1507-2 [20] = assay: as above
# Procedure, shortened: as §1
# S462 [21] = assay: as above
# Procedure, shortened: as §1
# ST8814 [22] = assay: as above
# Procedure, shortened: as §1
# STS26T [23] = assay: as above
# Procedure, shortened: as §1
# YST-1 [24] = assay: as above
# Procedure, shortened: as §1
Compound,drug sensitivity score (HS-PSS [1]),drug sensitivity score (HS-Sch-2 [2]),drug sensitivity score [3],drug sensitivity score [4],drug sensitivity score (S1507-2 [5]),drug sensitivity score (S462 [6]),drug sensitivity score (ST8814 [7]),drug sensitivity score (STS26T [8]),drug sensitivity score (YST-1 [9]),drug sensitivity score (HS-PSS [10]),drug sensitivity score [11],drug sensitivity score [12],drug sensitivity score (S1507-2 [13]),drug sensitivity score (ST8814 [14]),drug sensitivity score (STS26T [15]),% inhibition (HS-PSS [16]),% inhibition (HS-Sch-2 [17]),% inhibition [18],% inhibition [19],% inhibition (S1507-2 [20]),% inhibition (S462 [21]),% inhibition (ST8814 [22]),% inhibition (STS26T [23]),% inhibition (YST-1 [24])
COc1cc([C@@H]2c3cc4c(cc3[C@@H](O[C@@H]3O[C@@H]5CO[C@@H](c6cccs6)O[C@H]5[C@H](O)[C@H]3O)[C@H]3COC(=O)[C@H]23)OCO4)cc(OC)c1O [Teniposide] (max concentration tested 10000 nM),6.82,14,22.2,22.8,15.6 ± 3.6,23.7 ± 0.38,17.7,17.5,22.9,1.46,11,9.8,8.49 ± 4.7,14.7,11,68.2%,94.8%,92.8%,100%,92.44 ± 0.6%,107.1 ± 0.24%,87.2%,93.7%,88.2%
Cn1cnc(-c2cc3nccc(Oc4ccc(NC(=S)NC(=O)Cc5ccccc5)cc4F)c3s2)c1 [MGCD-265] (max concentration tested 10000 nM),2.02,2.2,0.016,0.731,4.92 ± 1.6,2.93 ± 0.53,3.47,0,0.19,0,0,0.0906,3.76 ± 5.3,0.0251,0,23.4%,29.8%,11%,21.3%,40 ± 2.4%,40.6 ± 5.4%,29.8%,11.4%,16.1%
COc1cc2c(NC3CCN(C(C)C)CC3)nc(N3CCC(F)(F)CC3)nc2cc1OCCCN1CCCC1 [UNC0642] (max concentration tested 10000 nM),6.56,6.08,0,0,8.23 ± 0.62,5.99 ± 0.77,5.87,5.57,5.26,4.78,0,0,7.07 ± 1.3,5.37,6.03,99.3%,100%,7.89%,7.25%,101.9 ± 0.52%,93 ± 3%,99.1%,96.5%,94.9%
Cc1c2oc3c(C)ccc(C(=O)N[C@@H]4C(=O)N[C@H](C(C)C)C(=O)N5CCC[C@H]5C(=O)N(C)CC(=O)N(C)[C@@H](C(C)C)C(=O)O[C@@H]4C)c3nc-2c(C(=O)N[C@@H]2C(=O)N[C@H](C(C)C)C(=O)N3CCC[C@H]3C(=O)N(C)CC(=O)N(C)[C@@H](C(C)C)C(=O)O[C@@H]2C)c(N)c1=O [Dactinomycin] (max concentration tested 1000 nM),25.1,32.5,30.8,33.5,23.4 ± 0.57,32.3 ± 1.7,25.3,31.9,37.4,6.19,12.7,14.7,5.68 ± 3.9,5.68,25.8,86.7%,102%,83%,89.2%,87 ± 3.5%,99.1 ± 1.6%,85.6%,99%,101%
c1ccc([C@H]2CN3CCSC3=N2)cc1 [Levamisole] (max concentration tested 10000 nM),0,0,0,0,0,0,0,0,0,0,0,0,0,0,0,-6.64%,-7.3%,-1.64%,4.5%,-5.81 ± 3.8%,0.12 ± 8.6%,-0.0528%,6.7%,0.96%
C=C(c1ccc(C(=O)O)cc1)c1cc2c(cc1C)C(C)(C)CCC2(C)C [Bexarotene] (max concentration tested 10000 nM),0,0,2.52,0,2.77 ± 0.55,0,0,0,0,0,0,0,1.23 ± 0.75,0,0,-11.5%,4.76%,11.7%,-0.128%,22.7 ± 3.6%,-9.52 ± 9.1%,5.83%,-8.14%,-1.34%
C[C@]12C=CC(=O)C=C1CC[C@@H]1[C@@H]2[C@@H](O)C[C@@]2(C)[C@H]1CC[C@]2(O)C(=O)CO [Prednisolone] (max concentration tested 10000 nM),0,0,0,0,0.89 ± 1.3,0,3.88,0,0.25,0,0,0,0,0,0,-16.2%,6%,6.78%,-7.75%,11.2 ± 15%,-0.231 ± 7%,15.6%,3.25%,12%
O=P1(NCCCl)OCCCN1CCCl (configuration not stated) [Ifosfamide] (max concentration tested 10000 nM),0,0,0,0,0.228 ± 0.32,0,0,0,0.08,0,0,0,0,0,0,-0.44%,-4.64%,0.661%,-1.49%,4.66 ± 16%,2.94 ± 0.79%,1.12%,-1.13%,11.6%
O=C(Cc1ccc(-c2ccc(OCCN3CCOCC3)cc2)cn1)NCc1ccccc1 [KX2-391] (max concentration tested 10000 nM),15.7,28.3,21.4,22.7,22.6 ± 0.24,28.72 ± 0.17,25.2,29.4,24,0,11.4,13.8,18.5 ± 2.1,30.1,32.1,76.6%,93.2%,75.7%,86.6%,75.8 ± 1.3%,94.784 ± 0.091%,83.5%,92.4%,80.7%
COc1cc2/c(=N/c3ccc(Br)cc3F)nc[nH]c2cc1OCC1CCN(C)CC1 [Vandetanib] (max concentration tested 1000 nM),4.01,0,0,0,1.44 ± 2,0,0,0.185,0,0.53,0,0,0.78 ± 1.1,0,0,34.2%,8.38%,-0.207%,-4.21%,28 ± 9.4%,11.2 ± 6.6%,1.05%,14.5%,2.38%
NC(=O)c1ccc(I)c([N+](=O)[O-])c1 [Iniparib] (max concentration tested 10000 nM),0,0,0,0,0,0,0,0,0,0,0,0,6.29 ± 8.9,0,0.221,-1.31%,1.26%,-4.93%,1.97%,9.46 ± 1.8%,13.9 ± 7.7%,-1.13%,7.72%,-4.35%
Nc1ccn([C@@H]2O[C@H](CO)[C@@H](O)C2(F)F)c(=O)n1 [Gemcitabine] (max concentration tested 1000 nM),14.7,25.2,26.5,27.7,31.7 ± 4.1,40.2 ± 1,27.7,28.3,19.7,7.61,23.3,18.5,14.3 ± 2,21,19.3,70.2%,75%,85%,84.5%,86.1 ± 3.8%,99.9 ± 2.2%,96.5%,83.8%,76.7%
C=CCNC1=C2C[C@@H](C)C[C@H](OC)[C@H](O)[C@@H](C)/C=C(\C)[C@H](OC(N)=O)[C@@H](OC)/C=C\C=C(/C)C(=O)NC(=CC1=O)C2=O [Tanespimycin] (max concentration tested 10000 nM),19,22.4,15.9,16.7,20.8 ± 0.74,17.9 ± 1.3,21,22.2,22.6,5.08,17.9,19.1,14.6 ± 1.2,7.63,14,89.1%,100%,96.8%,98.2%,98 ± 0.1%,99.25 ± 0.39%,96.5%,96.1%,75.3%
